According to ChEMBL document CHEMBL1201862, “PubChem BioAssay data set” (2004):
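Growth conditions: 96-well plates. Treatment: test compound, 48 hours, 5 concentrations. Analysis: linear interpolation between bracketing concentrations; unreached endpoints set to highest concentration. GI50 is the concentration that inhibits growth by half.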 Active and inactive are the calls of the source. No stated cut-off is given here; in the data, active = GI50 up to about 1.1 µM and inactive = higher.

Key:
Experiment in all cases: NCI-60 cell line screen, 48 h
SR = tested on: SR
OVCAR-3 = tested on: OVCAR-3
HT-29 = tested on: HT-29
A498 = tested on: A498
HCC 2998 = tested on: HCC 2998
SF-539 = tested on: SF-539
HCT-116 = tested on: HCT-116
MOLT-4 = tested on: MOLT-4
HOP-62 = tested on: HOP-62
SNB-75 = tested on: SNB-75
A549 = tested on: A549
SNB-19 = tested on: SNB-19
OVCAR-4 = tested on: OVCAR-4
SN12C = tested on: SN12C
RXF 393 = tested on: RXF 393
OVCAR-5 = tested on: OVCAR-5
HCT-15 = tested on: HCT-15
COLO 205 = tested on: COLO 205

Row | Structure (SMILES) | GI50 (SR) | GI50 (OVCAR-3) | GI50 (HT-29) | GI50 (A498) | GI50 (HCC 2998) | GI50 (SF-539) | GI50 (HCT-116) | GI50 (MOLT-4) | GI50 (HOP-62) | GI50 (SNB-75) | GI50 (A549) | GI50 (SNB-19) | GI50 (OVCAR-4) | GI50 (SN12C) | GI50 (RXF 393) | GI50 (OVCAR-5) | GI50 (HCT-15) [µM] | GI50 (COLO 205)
1 | O=C(c1no[n+]([O-])c1C(=O)c1csc2ccccc12)c1csc2ccccc12 | 0.106 µM (active) | 1.86 µM (inactive) | 3.64 µM (inactive) | 15 µM (inactive) | 4.6 µM (inactive) | 2.61 µM (inactive) | 8.85 µM (inactive) | 0.678 µM (active) | 9.33 µM (inactive) | 15.1 µM (inactive) | 10 µM (inactive) | 16.9 µM (inactive) | 2.86 µM (inactive) | 4.37 µM (inactive) | 7.19 µM (inactive) | 18.3 µM (inactive) | 4.57 | 3.06 µM (inactive)
2 | CC(=O)c1c(SCCN2CCOCC2)n(-c2ccccc2)c(=S)n(-c2ccccc2)c1=O | 28.3 µM (inactive) | 14.8 µM (inactive) | 23.8 µM (inactive) | 11.5 µM (inactive) | 14.3 µM (inactive) | 21.6 µM (inactive) | 16.1 µM (inactive) | 16 µM (inactive) | 26.2 µM (inactive) | 22.3 µM (inactive) | 35.2 µM (inactive) | > 40.9 µM (inactive) | > 46.2 µM (inactive) | 16.9 µM (inactive) | 11.9 µM (inactive) | > 100 µM (inactive) | 19.5 | 21.5 µM (inactive)
3 | COC(=O)CCCCC/C(=C\C(=O)C(Cl)(Cl)Cl)OC | 18.1 µM (inactive) | 26.6 µM (inactive) | 30.5 µM (inactive) | 40.8 µM (inactive) | 15.9 µM (inactive) | 18.6 µM (inactive) | 20.2 µM (inactive) | 16.7 µM (inactive) | 33.7 µM (inactive) | 21.4 µM (inactive) | 45.6 µM (inactive) | 48.2 µM (inactive) | 19.5 µM (inactive) | 33.5 µM (inactive) | 16.7 µM (inactive) | > 100 µM (inactive) | 24.2 | 26.5 µM (inactive)
4 | CCCCCCCc1c(Cl)nc(Cl)nc1Cl | 0.604 µM (active) | 6.35 µM (inactive) | 4.04 µM (inactive) | 20.1 µM (inactive) | 5.81 µM (inactive) | 9.82 µM (inactive) | 2.63 µM (inactive) | 1.15 µM (inactive) | 18.6 µM (inactive) | 14.6 µM (inactive) | 16.9 µM (inactive) | 11.2 µM (inactive) | 2.87 µM (inactive) | 2.05 µM (inactive) | 2.47 µM (inactive) | 8.85 µM (inactive) | 3.66 | 5.25 µM (inactive)
5 | Nc1cccc(/C=C/CN2CCN(CCOC(c3ccccc3)c3ccccc3)CC2)c1 | 4.61 µM (inactive) | 15.6 µM (inactive) | 3.15 µM (inactive) | 18 µM (inactive) | 3.52 µM (inactive) | 16.7 µM (inactive) | 12.5 µM (inactive) | 3.54 µM (inactive) | 13.8 µM (inactive) | 10.5 µM (inactive) | 15.1 µM (inactive) | 15.7 µM (inactive) | 13.2 µM (inactive) | 16.8 µM (inactive) | 12.3 µM (inactive) | 16 µM (inactive) | 12.8 | 6.03 µM (inactive)
6 | O=c1c2ncn(C3CCCCO3)c2n(-c2ccccc2)c(=S)n1-c1ccccc1 (stereo unspecified) | > 4.65 µM (inactive) | > 61.9 µM (inactive) | > 76.4 µM (inactive) | 30.7 µM (inactive) | > 70 µM (inactive) | 10.8 µM (inactive) | 45.5 µM (inactive) | > 100 µM (inactive) | 10.4 µM (inactive) | 7.69 µM (inactive) | 78 µM (inactive) | 21.5 µM (inactive) | 40.4 µM (inactive) | 56.6 µM (inactive) | 7.8 µM (inactive) | > 61.1 µM (inactive) | 55.3 | > 71.4 µM (inactive)
7 | CSc1nc(SC)c2c(CO)c(Br)n(Cc3ccccc3)c2n1 | > 100 µM (inactive) | 29.5 µM (inactive) | 33.8 µM (inactive) | 4.32 µM (inactive) | 43.3 µM (inactive) | 12.2 µM (inactive) | 26.4 µM (inactive) | > 100 µM (inactive) | 27 µM (inactive) | 13.6 µM (inactive) | 29.8 µM (inactive) | 29 µM (inactive) | 16.1 µM (inactive) | 35.4 µM (inactive) | 28 µM (inactive) | 56.9 µM (inactive) | 70 | > 100 µM (inactive)
8 | C=C(C)C1CC/C(C)=C/CCC2(C)OC2CC/C(CO)=C\C1O (stereo unspecified) | 36.9 µM (inactive) | > 100 µM (inactive) | > 100 µM (inactive) | > 100 µM (inactive) | > 100 µM (inactive) | 67 µM (inactive) | > 100 µM (inactive) | 43 µM (inactive) | > 100 µM (inactive) | 45.7 µM (inactive) | > 100 µM (inactive) | > 100 µM (inactive) | > 100 µM (inactive) | > 100 µM (inactive) | > 100 µM (inactive) | > 100 µM (inactive) | > 100 | 47.6 µM (inactive)
9 | COC(=O)/C=C\C(C#N)(C#N)/N=C/c1ccc(C)s1 | 2.08 µM (inactive) | 3.94 µM (inactive) | 1.51 µM (inactive) | 20.3 µM (inactive) | 17.7 µM (inactive) | 4.63 µM (inactive) | 1.32 µM (inactive) | 0.955 µM (active) | 14.9 µM (inactive) | 3.12 µM (inactive) | 18.4 µM (inactive) | 18.7 µM (inactive) | 3.78 µM (inactive) | 2.29 µM (inactive) | 1.46 µM (inactive) | 6.53 µM (inactive) | 1.67 | 1.43 µM (inactive)
10 | Cc1cc2c(c(O)c1-c1c(C)cc(O)c3c1C(=O)C=CC3=O)C(=O)C=CC2=O | 0.043 µM (active) | 2.08 µM (inactive) | 1.58 µM (inactive) | 6.76 µM (inactive) | 3.13 µM (inactive) | 2.88 µM (inactive) | 1.21 µM (inactive) | 0.0224 µM (active) | 20.3 µM (inactive) | 5.5 µM (inactive) | 17.7 µM (inactive) | 18 µM (inactive) | 3 µM (inactive) | 2.37 µM (inactive) | 0.757 µM (active) | 2.62 µM (inactive) | 1.52 | 0.279 µM (active)
11 | Cc1nc2ccc(S(=O)(=O)Nc3ccccn3)cc2c(=O)n1NS(=O)(=O)c1ccccn1 | > 100 µM (inactive) | > 100 µM (inactive) | > 100 µM (inactive) | > 100 µM (inactive) | > 100 µM (inactive) | > 100 µM (inactive) | > 100 µM (inactive) | > 100 µM (inactive) | > 100 µM (inactive) | > 100 µM (inactive) |  | > 100 µM (inactive) | > 100 µM (inactive) | > 100 µM (inactive) | > 100 µM (inactive) | > 100 µM (inactive) | > 100 | > 100 µM (inactive)
12 | COC(=O)c1ccccc1CC1Cc2ccc3c(c2C1)CCC3 (stereo unspecified) | 5.38 µM (inactive) | 31.3 µM (inactive) | 20 µM (inactive) | > 100 µM (inactive) | 23.8 µM (inactive) | 56.2 µM (inactive) | 23.3 µM (inactive) | 21.6 µM (inactive) | 38.9 µM (inactive) | 25.8 µM (inactive) | 30.3 µM (inactive) | 48.6 µM (inactive) | 24.2 µM (inactive) | 39.6 µM (inactive) | 19.1 µM (inactive) | 29.5 µM (inactive) | 20.4 | 17.4 µM (inactive)
13 | CCCC(CC)c1cc(O)c(O)cc1C(CC)CCC (stereo unspecified) | > 10 µM (inactive) | > 10 µM (inactive) | > 10 µM (inactive) | > 10 µM (inactive) | > 10 µM (inactive) | > 10 µM (inactive) | > 10 µM (inactive) | > 10 µM (inactive) | > 10 µM (inactive) | > 10 µM (inactive) | > 10 µM (inactive) | > 10 µM (inactive) | > 10 µM (inactive) | > 10 µM (inactive) | > 10 µM (inactive) | > 10 µM (inactive) | > 10 | > 10 µM (inactive)
14 | CCNC(=O)Nc1ccccn1 | > 100 µM (inactive) | > 100 µM (inactive) | > 100 µM (inactive) | > 100 µM (inactive) | > 100 µM (inactive) | > 100 µM (inactive) | > 100 µM (inactive) | > 100 µM (inactive) | > 100 µM (inactive) | 84.5 µM (inactive) | > 100 µM (inactive) | > 100 µM (inactive) | > 100 µM (inactive) | > 100 µM (inactive) | > 100 µM (inactive) | > 100 µM (inactive) |  | > 100 µM (inactive)
15 | CCOC(=O)c1cc(C2=CCNC2=O)c(-c2cc(C)no2)[nH]1 | 33.2 µM (inactive) | 45.6 µM (inactive) | 43.5 µM (inactive) | > 100 µM (inactive) | > 100 µM (inactive) | > 100 µM (inactive) | 31.1 µM (inactive) | 25.1 µM (inactive) | 73.3 µM (inactive) | 34 µM (inactive) | 37.4 µM (inactive) | > 100 µM (inactive) | 49.5 µM (inactive) | > 100 µM (inactive) | 49.2 µM (inactive) | > 100 µM (inactive) | 92.9 | 54.8 µM (inactive)
16 | CCC1CN2CCc3c([nH]c4ccccc34)[C@@](C(=O)OC)(c3cc4c(cc3OC)N(C)C3C(O)(C(=O)OC)C(C(=O)OC)C5(CC)C=CCN6CCC43C65)C[C@@H](C2)[C@@H]1C(C)(C)C (stereo partly specified) | 0.473 µM (active) | 0.316 µM (active) | 0.328 µM (active) | 0.306 µM (active) | 0.373 µM (active) | 0.381 µM (active) | 0.312 µM (active) | 0.479 µM (active) | 0.257 µM (active) | 0.337 µM (active) | 0.649 µM (active) | 0.337 µM (active) | 3.15 µM (inactive) | 0.607 µM (active) | 0.285 µM (active) | 2.68 µM (inactive) | 0.396 | 0.372 µM (active)
